Legend:
CXCR1 = target: T1, CXCR1 (Homo sapiens, UniProt P25024); experiment: Migration of CHO-K1 cells expressing CXCR1; format: cell-based; details: CHO-K1 cells expressing CXCR1, 2 hours; degree similar to IL-8; FIG. 3
T1 construct: cDNA fragments encompassing chemokine receptor coding regions; expressed in transfected cells; host or cells: CHO-K1 (ATCC CCL-61), transient transfection
T1 sequence (P25024 1-350): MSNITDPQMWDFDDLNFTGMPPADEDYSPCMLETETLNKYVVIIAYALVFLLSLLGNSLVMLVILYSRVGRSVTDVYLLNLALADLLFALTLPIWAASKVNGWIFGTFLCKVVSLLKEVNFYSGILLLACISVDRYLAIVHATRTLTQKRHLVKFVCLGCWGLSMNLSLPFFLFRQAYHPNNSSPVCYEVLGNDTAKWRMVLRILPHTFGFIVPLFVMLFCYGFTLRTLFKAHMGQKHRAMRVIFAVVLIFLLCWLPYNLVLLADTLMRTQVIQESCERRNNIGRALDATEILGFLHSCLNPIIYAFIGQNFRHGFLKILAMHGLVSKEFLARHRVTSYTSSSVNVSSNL
Protocol: (§1) CHO-K1 cells were obtained from American Type Culture Collection (CCL-61) and cultured in Ham's F12 media supplemented with 10% heat inactivated FBS and 100 μg/ml penicillin/streptomycin. cDNA fragments encompassing chemokine receptor coding regions were obtained from cDNAs synthesized from HL-60 cells and/or human peripheral blood mononuclear cells by the polymerase chain reaction. Expression constructs of chemokine receptors were generated by cloning PCR fragments into expression vector pEF6/V5-TOPO (K9610-20, Invitrogen). Transient transfections were carried out with Fugene 6 transfection reagent (1814443, Roche Applied Science) according to the manufacturer's instructions.
(§2) The CHO-chemokine receptor cells were used in migration assays 36 hours following transfection. In vitro migration assays were performed using a Neuroprobe Blindwell migration apparatus (AA12, Neuro Probe, Inc./16008 Industrial Drive, Gaithersburg, Md. 20877) according to the manufacturer's instructions with slight modifications. […]
(§3) Following the migration assays, migrated cells that had adhered to the underside of the filter were quantitated according to the manufacturer's instructions. […] Stained filtered were mounted onto microscope slides and migrated cells in each well were manually counted under 40× magnification.

CXCR2 = target: T2, CXCR2 (Homo sapiens, UniProt P25025); experiment: Migration of CHO-K1 cells expressing CXCR2; format: cell-based; details: CHO-K1 cells expressing CXCR2, 2 hours; FIG. 3
T2 construct: cDNA fragments encompassing chemokine receptor coding regions; expressed in transfected cells; host or cells: CHO-K1 (ATCC CCL-61), transient transfection
T2 sequence (P25025 1-360): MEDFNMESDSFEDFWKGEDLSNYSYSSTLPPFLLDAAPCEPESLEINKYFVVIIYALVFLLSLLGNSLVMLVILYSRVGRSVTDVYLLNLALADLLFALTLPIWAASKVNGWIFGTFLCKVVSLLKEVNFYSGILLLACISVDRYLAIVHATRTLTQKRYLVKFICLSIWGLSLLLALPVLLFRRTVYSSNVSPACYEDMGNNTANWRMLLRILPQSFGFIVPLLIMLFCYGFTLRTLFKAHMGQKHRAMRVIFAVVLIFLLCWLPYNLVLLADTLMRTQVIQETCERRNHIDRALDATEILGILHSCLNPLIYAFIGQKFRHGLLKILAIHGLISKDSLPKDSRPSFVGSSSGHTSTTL
Protocol: as §1, §2, §3

CXCR6 = target: T3, CXCR6 (Homo sapiens, UniProt O00574); experiment: Migration of CHO-K1 cells expressing CXCR6; format: cell-based; details: CHO-K1 cells expressing CXCR6, 2 hours; FIG. 3
T3 construct: cDNA fragments encompassing chemokine receptor coding regions; expressed in transfected cells; host or cells: CHO-K1 (ATCC CCL-61), transient transfection
T3 sequence (O00574 whole entry, the tested form may be a part): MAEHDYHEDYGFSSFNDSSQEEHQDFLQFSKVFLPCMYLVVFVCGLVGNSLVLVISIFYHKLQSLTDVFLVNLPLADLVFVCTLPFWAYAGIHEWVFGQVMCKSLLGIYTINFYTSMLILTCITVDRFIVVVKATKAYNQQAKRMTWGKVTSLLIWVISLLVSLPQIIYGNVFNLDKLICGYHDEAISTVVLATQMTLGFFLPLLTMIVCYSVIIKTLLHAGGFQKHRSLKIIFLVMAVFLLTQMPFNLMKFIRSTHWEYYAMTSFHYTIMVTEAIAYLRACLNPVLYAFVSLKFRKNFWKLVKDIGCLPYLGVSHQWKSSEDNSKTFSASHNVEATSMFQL
Protocol: as §1, §2, §3

CX3CR1 = target: T4, CX3CR1 (Homo sapiens, UniProt P49238); experiment: Migration of CHO-K1 cells expressing CX3CR1; format: cell-based; details: CHO-K1 cells expressing CX3CR1, 2 hours; FIG. 3
T4 construct: cDNA fragments encompassing chemokine receptor coding regions; expressed in transfected cells; host or cells: CHO-K1 (ATCC CCL-61), transient transfection
T4 sequence (P49238 1-355): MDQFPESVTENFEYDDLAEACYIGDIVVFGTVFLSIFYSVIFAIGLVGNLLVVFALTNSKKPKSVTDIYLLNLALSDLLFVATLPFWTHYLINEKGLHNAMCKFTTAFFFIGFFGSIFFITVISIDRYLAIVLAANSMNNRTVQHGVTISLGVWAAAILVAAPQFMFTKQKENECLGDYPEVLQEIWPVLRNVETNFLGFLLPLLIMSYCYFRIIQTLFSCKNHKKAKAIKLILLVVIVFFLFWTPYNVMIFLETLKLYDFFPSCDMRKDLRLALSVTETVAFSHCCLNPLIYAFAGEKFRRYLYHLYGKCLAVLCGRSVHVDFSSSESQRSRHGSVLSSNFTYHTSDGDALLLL
Protocol: as §1, §2, §3

CCR receptors = experiment: Migration of CHO-K1 cells expressing CCR receptors; format: cell-based, human; details: 2 hours, FIG. 4
Protocol: as §1, §2, §3

[1] = tested on: C57BL/6J mice model of EAE; experiment: C57BL/6J mice model of experimental autoimmune encephalomyelitis (EAE), prevention paradigm; format: in vivo, mouse
CXCR3 = target: T5, CXCR3 (Homo sapiens, UniProt P49682); experiment: Migration of CHO-K1 cells expressing CXCR3; format: cell-based; design: cDNA fragments encompassing chemokine receptor coding regions; expressed in transfected cells; host or cells: CHO-K1 (ATCC CCL-61), transient transfection; details: CHO-K1 cells expressing CXCR3, 2 hours; FIG. 3
T5 sequence (P49682 1-368): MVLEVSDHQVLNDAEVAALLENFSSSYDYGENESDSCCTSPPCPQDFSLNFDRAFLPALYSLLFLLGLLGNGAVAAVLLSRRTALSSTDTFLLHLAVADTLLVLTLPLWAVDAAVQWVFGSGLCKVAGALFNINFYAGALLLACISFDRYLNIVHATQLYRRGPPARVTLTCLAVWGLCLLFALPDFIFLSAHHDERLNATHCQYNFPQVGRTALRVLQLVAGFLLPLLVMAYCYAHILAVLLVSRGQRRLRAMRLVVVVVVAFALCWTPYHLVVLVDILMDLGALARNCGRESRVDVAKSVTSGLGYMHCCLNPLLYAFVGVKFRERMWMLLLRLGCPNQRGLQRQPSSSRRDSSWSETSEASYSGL
Protocol: as §1, §2, §3

CC(C)(C)c1cc(/C=[N+](\[O-])C(C)(C)C)cc(C(C)(C)C)c1O [Compound 1, α-(4-hydroxy-3,5-di-tert-butylphenyl)-N-tert-butylnitrone]
induction of cell migration (CXCR1): induced migration | induction of cell migration (CXCR2): induced migration | induction of cell migration (CXCR6): induced migration | induction of cell migration (CX3CR1): induced migration | induction of cell migration (CCR receptors): did not induce migration | reversal of EAE-associated weight loss ([1]; 10 mg/kg oral once a day, FIG. 10): significant effect on reversal | tissue infiltration score (spinal cord, H&E) ([1]; 10 mg/kg vs Vehicle, Day 26, failing to reach statistical significance (p=0.0513), FIG. 11): lower infiltration score than control mice | maximum disease score ([1]; oral gavage once a day from 7 days before induction, Days 9-26, FIG. 8): significant effect | cumulative disease score ([1]; oral gavage once a day from 7 days before induction, Days 9-26, FIG. 9): significant effect | disease severity (average clinical scores) ([1]; oral gavage once a day, 0.3, 1, 3, 10 mg/kg from 7 days before induction, vs Vehicle, FIG. 7): significant reduction | induction of cell migration (CXCR3): induced migration

Source: US20050215646A1, “Methods for treating multiple sclerosis and pharmaceutical compositions therefor” (Renovis, Inc., priority 2004, published 2005)
